Measured values reported in patent US9047904B2, “Magnetic recording medium” (priority 2009, dated 2015).

Settings: 50 mg in 20 mL water + 30 mL tetrahydrofuran; titrated with 0.1N NaOH; pH at half of the neutralization titration quantity
Description: In the present invention, the term “acid strength” refers to a value that is measured by the following method.
A 50 mg sample of organic acid A or B is dissolved in a mixed solution of 20 mL of water and 30 mL of tetrahydrofuran. Titration to neutral is conducted using a model GT-100 Win automatic titrator made by Mitsubishi Chemical Analytech with 0.1N NaOH (Wako Pure Chemical Industries). The pH corresponding to half of the titration quantity that is added dropwise to attain the neutralization point is read, and that pH is adopted as the acid strength.
<Acid Strength of Organic Acids A and B>
A 50 mg sample of organic acid A or B was dissolved in a mixed solution of 20 mL of water and 30 mL of tetrahydrofuran. Titration to neutral was conducted with 0.1N NaOH (Wako Pure Chemical Industries) using a model GT-100 Win automatic titrator made by Mitsubishi Chemical Analytech. The pH corresponding to half of the titration quantity that was added dropwise to attain the neutralization point was read, and that pH was adopted as the acid strength.

Molecule | pKa(B) (acid strength of organic acid B) | pKa(A) (acid strength of organic acid A)
O=C(O)CC(O)(CC(=O)O)C(=O)O [Citric acid, citric acid] | 5.84 | –
Phenyl phosphate | – | 4.01
